Assay results published in patent publication US20050249675A1, “Mucin synthesis inhibitors” (priority 2003, published 2005).
pIC50: −log10 of the molar value. Entries after “also recorded” stand apart in the source; their conditions may differ. Where two headings read alike, the source gives them in different places.

Tests used:
[1] = tested on: mice sensitized to Aspergillus fumigatus; test: Aspergillus fumigatus murine asthma model, talniflumate chow; assay type: in vivo; conditions: oral; for Lung eosinophilia by bronchoalveolar lavage: talniflumate chow, vs sensitized mice fed standard chow
[2] = tested on: NCI-H292/hCLCA1 cells; test: AB/PAS staining of mucous glycoconjugates in NCI-H292/hCLCA1 cells; assay type: cell-based, human; conditions: NFA 100 μM, MFA 125 or 250 μM, talniflumate 12.5, 25 or 50 μM; vs untreated cells
Method: For the determination of mucous glycoconjugate production, NCI-H292/ctl and NCI-H292/hCLCA1 (AAF 15) cells were cultured in 24-well plates for 3 days. Cells were then fixed with Formalin and mucous glycoconjugates were visualized by AB/PAS staining (Sigma). […] For chloride channel blockage studies, cells were cultured in the presence of niflumic acid (NFA) (Sigma) at 100 μM concentration, mefanamic acid (MFA) at 125 or 250 μM or talniflumate at 12.5, 25 or 50 μM, or media alone.
For the determination of mucous glycoconjugate production, NCI-H292/hCLCA1 cells were cultured in 24-well plates for 3 days with at concentrations of 0 to 150 μM of the talniflumate enantiomers or media alone (control). Cells were then fixed with Formalin and mucous glycoconjugates were visualized by AB/PAS staining (Sigma). […] In this assay both enantiomers were seen to inhibit muco-glycoconjugate production at concentrations>40 μM.

[3] = tested on: H292 clone 15 cells; test: Alamar Blue cytotoxicity; conditions: for Est. LD50 (Alamar Blue): H292 clone 15 cells, 48 hours, average of 3 experiments
[4] = tested on: MUC2; assay type: cell-based; conditions: LTA from S. aureus; FIG. 22
[5] = tested on: H292 clone 15 cells; test: ELLA for MUC5AC, H292 clone 15 cells (Example 11); assay type: cell-based, human; conditions: MUC5AC in conditioned media, 48 hours, average of 3 experiments
Method: ELLA (Enzyme-Linked Lectin Assay) was used to determine the inhibitory effect of compounds on mucus production by H292 clone 15 cells. H292 clone 15 cells, a subclone from human pulmonary mucoepidermoid carcinoma cells overexpressing hCLCA1, were grown to confluent, followed by incubation with increasing concentrations of compounds for 48 hours. Conditioned media were collected and MUC5AC (the major secretory mucin in lungs) content was determined by ELLA measurement as described below. 96 well microtiter plates were coated with a mouse monoclonal antibody against human MUC5AC (1-13M1, NeoMarkers), then incubated with test conditioned media. Bound MUC5AC was detected by horseradish peroxidase-conjugated soybean lectin that has a high affinity towards highly-glycosylated proteins such as MUC5AC. Conversion of peroxidase substrate TMB (Tetramethylbenzidine Base) was quantified by reading at 450 nm. O.D. (optical density) readings were plotted against concentrations of compounds. Linear regression was used to derive the concentration at which O.D. was reduced by 50% (IC50) when compared to vehicle-treated cells.

[6] = tested on: MUC5A/C secretion in hCLCA1 expressing H292 cells; test: MUC5A/C secretion by ELLA in hCLCA1 expressing H292 cells; assay type: cell-based, human; parameters: key to ELLA: (+) = inhibition; (−) = no inhibition
[7] = tested on: CF mice (CF knock-out mice and CF AF508 mice); test: CF mice body weight and survival on talniflumate chow; assay type: in vivo; conditions: approximate dose of 100 mg/kg per os in chow
Method: Within two weeks of weaning, the osmotic agent treatment was discontinued and the mice were either placed on talniflumate containing chow or control chow. The CF mice consuming control chow lost 10-15% body weight and died (CF knock-out) or were euthanized (CF AF508) due to the animal's moribund state within 7 days post-osmotic agent. In contrast, the CF mice that consumed talniflumate (approximate dose of 100 mg/kg per os) gained 8-12% body weight and survived at least 26 days, at which time they were sacrificed to evaluate histopathology (see FIG. 20).

[8] = target: T1, human chloride channel hCLCA1 (Homo sapiens, UniProt A8K7I4); test: Patch clamp chloride current, NCI-H292 cell expressing hCLCA1; assay type: cell-based; conditions: 5 micromolar talniflumate; 2 μM ionomycin and 2 mM calcium; positive voltage
T1 construct: expressed in transfected cells; host or cells: NCI-H292 (human pulmonary mucoepidermoid carcinoma)
T1 sequence (A8K7I4 22-914): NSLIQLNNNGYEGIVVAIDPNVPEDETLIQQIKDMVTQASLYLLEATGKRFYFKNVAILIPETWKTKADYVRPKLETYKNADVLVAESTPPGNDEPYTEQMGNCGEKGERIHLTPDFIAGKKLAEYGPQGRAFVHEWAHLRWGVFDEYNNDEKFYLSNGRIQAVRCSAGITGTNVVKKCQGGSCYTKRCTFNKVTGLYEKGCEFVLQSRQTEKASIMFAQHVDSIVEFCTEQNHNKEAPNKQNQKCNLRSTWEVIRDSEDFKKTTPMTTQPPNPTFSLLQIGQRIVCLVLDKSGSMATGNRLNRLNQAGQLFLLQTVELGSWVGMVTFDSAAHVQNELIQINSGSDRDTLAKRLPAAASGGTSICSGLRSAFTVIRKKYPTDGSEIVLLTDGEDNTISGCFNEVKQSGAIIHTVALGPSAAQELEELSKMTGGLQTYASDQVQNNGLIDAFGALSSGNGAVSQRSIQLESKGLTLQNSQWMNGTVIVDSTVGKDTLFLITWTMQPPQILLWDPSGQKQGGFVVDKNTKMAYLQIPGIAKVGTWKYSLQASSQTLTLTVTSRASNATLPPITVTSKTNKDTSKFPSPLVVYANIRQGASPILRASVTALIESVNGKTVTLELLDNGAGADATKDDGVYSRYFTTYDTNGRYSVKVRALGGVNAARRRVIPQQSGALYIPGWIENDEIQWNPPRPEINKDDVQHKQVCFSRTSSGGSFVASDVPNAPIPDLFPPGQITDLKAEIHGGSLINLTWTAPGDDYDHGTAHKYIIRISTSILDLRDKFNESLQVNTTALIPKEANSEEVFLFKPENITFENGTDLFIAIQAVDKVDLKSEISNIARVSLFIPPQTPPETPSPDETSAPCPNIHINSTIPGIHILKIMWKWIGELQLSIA
Method: An NCI-H292 cell transfected with a plasmid expressing the human chloride channel hCLCA1 was patch clamped and chloride current (I) was measured over a range of voltages (V). Substantial chloride current was invoked by the addition of 2 μM ionomycin and 2 mM calcium (circles) compared to baseline (squares), indicating activation of hCLCA1.

[9] = tested on: Muc5b; test: Inhibition of Muc5b expression; assay type: cell-based; parameters: key: (+) = inhibition; (−) = no inhibition; conditions: Table 2
Method: The effects of talniflumate derivatives on mucin production were also assayed for changes in ELLA and IC50 (Table 2) as described in the methods above.

[10] = tested on: mice sensitized by nasal aspiration of Aspergillus fumigatus antigen; test: Aspergillus fumigatus antigen murine asthma model, intra-tracheal NFA; assay type: in vivo; conditions: 100 μg NFA intra-tracheal, days 0-21
[11] = tested on: activated Caco2 cells; test: PAS staining for mucin in activated Caco2 cells; conditions: activated Caco2 cells; 100 μm for NFA and 300 μm for DIDS; vs untreated cells
[12] = tested on: activated LHL4 cells; test: Eotaxin ELISA, activated LHL4 cells; assay type: cell-based; conditions: increasing concentrations
Method: Activated LHL4 cells that express and secrete eotaxin have been produced and used to test for inhibitors of eotaxin production. These cells were assayed in vitro for eotaxin by an ELISA technique well known in the art (R&D Systems).

[13] = tested on: activated Caco2 cell line; test: Viability of activated Caco2 cells; assay type: cell-based; conditions: even higher concentrations of NFA; FIG. 3
[14] = tested on: IL9 transgenic mice; test: Mucin production in lungs of IL9 transgenic mice; assay type: in vivo; conditions: IT once daily for three days; NFA 100 μg
Method: Certified virus-free male and female IL9 transgenic mice (IL9TG5-FVB/N) 5-6 weeks of age were bred in our laboratories. Male and female FVB/N mice 5-6 weeks of age were purchased from Jackson Laboratories (Bar Harbor Me.). Animals were housed in high-efficiency, particulate filtered air and allowed free access to food and water for 3 to 7 days prior to experimental manipulation. The animal facilities were maintained at 22° C. and the light:dark cycle was automatically controlled (10:14 hour light:dark).
Animals were phenotyped, naïve, or 24 hrs after receiving intra-tracheal (IT) shame (vehicle) treatment, or drugs in the same vehicle as was used in identically treated controls. Mice were treated IT once daily for three days. NFA (100 μg) or antibody to IL-9 were administered in PBS IT. Treatment responses were measured by the assessment of mucin inhibition by histologic exam (PAS staining of greater than 10 sections through the treated and control lungs or western blots of MUC 1, MUC2 and MUC3 expression from the same lungs.
The up-regulation of mucus production in the IL9 transgenic is specifically associated with increased steady-state mRNA levels of MUC2 and MUC5AC as shown by RT-PCR (FIG. 9).

**Q.** For `O=C1OC(OC(=O)c2cccnc2Nc2cccc(C(F)(F)F)c2)c2ccccc21` (racemic) [Talniflumate, talniflumate], which “Lung eosinophilia by bronchoalveolar lavage” value [1] is on record?
**A.** reduced the number of eosinophilic cells

**Q.** And the “Lung eosinophilia by bronchoalveolar lavage” value ([1]; listed as talniflumate)?
**A.** inhibition of lung eosinophilia

**Q.** What about the “Mucin (PAS) staining in lung” value ([1]; talniflumate containing chow, Asp-sens mice) of the same molecule?
**A.** reduced mucin staining; also recorded: inhibition of mucin over production

**Q.** What about the “PAS positive staining muco-glycoconjugates” value [2] of the same molecule?
**A.** significantly fewer positive staining muco-glycoconjugates

**Q.** What about the “Est. LD50 (Alamar Blue)” value [3] of the same molecule?
**A.** 108 µM

**Q.** And the “LD50 (Alamar Blue)” value ([3]; NCI-H292/hCLCA1 cells, concentrations up to 150 μM, FIG. 27)?
**A.** > 150 µM

**Q.** And the “Lipoteichoic acid induction of MUC2 (luciferase RLU)” value [4]?
**A.** modulated

**Q.** And the pIC50 ([5]; Homo sapiens, NCI-H292)?
**A.** 4.48

**Q.** What about the “Inhibition of MUC5A/C secretion / mucin production (figure legends)” value [6] of the same molecule?
**A.** inhibition of mucin production

**Q.** And the pIC50 ([6]; Homo sapiens, NCI-H292/hCLCA1 cells, 0 through 150 μM, 48 hours, FIG. 26, read-out: IC50, inhibition of MUC5A/C secretion)?
**A.** 4.44

**Q.** And the Body weight gain [7]?
**A.** 8-12%

**Q.** What about the Survival ([7]; then sacrificed) of the same molecule?
**A.** at least 26 days

**Q.** And the Chloride Current [8]?
**A.** reduction in chloride current

**Q.** How did the “Est. LD50 (Alamar Blue)” value [3] turn out when `O=C1OC(CC(=O)c2cccnc2Nc2cccc(C(F)(F)F)c2)c2ccccc21` (stereo not drawn) [4 (MSI 2216)] was run?
**A.** 32 µM

**Q.** And the “Inhibition of Muc5b Expression” value [9]?
**A.** +

**Q.** And the pIC50 [5]?
**A.** 5.52

**Q.** What about the pIC50 ([6]; Table 2, ELLA, read-out: IC50) of the same molecule?
**A.** 5.30

**Q.** And the ELLA ([6]; Table 2, mucin production)?
**A.** +

**Q.** What does the source list for `O=C(O)c1cccnc1Nc1cccc(C(F)(F)F)c1` [NFA, niflumic acid]?
**A.** PAS positive staining muco-glycoconjugates [2]: significantly fewer positive staining muco-glycoconjugates; Serum IgE levels [10]: no effect; Antigen-induced airway hyperresponsiveness ([10]; vs PBS): suppress airway hyperresponsiveness; also recorded: suppresses antigen-induced airway hyperresponsiveness; BAL lung eosinophilia ([10]; vs PBS): suppress; also recorded: reduces antigen-induced lung eosinophilia; Over-production of mucus in the lung caused by exposure to antigen ([10]; vs PBS): suppress the over-production of mucus; also recorded: blocks increased mucin expression; PAS positive staining mucin glycoconjugates [11]: significantly fewer positive staining mucin glycoconjugates; also recorded: blocks mucin overproduction in vitro; Eotaxin production [12]: Significant inhibition; also recorded: blocks epithelial activation including chemokine production; Viability of activated Caco2 cells [13]: not affected; also recorded: did not effect their viability; Mucin production in IL9 transgenic lungs [14]: decreased mucin production
